Measurements reported in US20250375544A1, “DUAL MODE RADIOTRACER AND -THERAPEUTICS” (TECHNISCHE UNIVERSITÄT MÜNCHEN, priority 2021, published 2025).

Key:
[1] = ^177Lu-labeled compound, n = 6
[2] = test system: LNCaP tumor xenograft-bearing CB17-SCID mice; assay: Biodistribution in LNCaP tumor xenograft-bearing CB17-SCID mice; conditions: 24 h p.i.
[3] = molecular target: PSMA (Homo sapiens, UniProt Q04609); assay: Affinity determinations (IC50), competitive binding assay with ([^125I]I-BA)KuE on LNCaP cells; conditions: ([^125I]I-BA)KuE 0.2 nM, HBSS (1% BSA), 4° C., 1 h, cold ^natGa/^natLu complex
Chain of PSMA (Q04609 whole entry): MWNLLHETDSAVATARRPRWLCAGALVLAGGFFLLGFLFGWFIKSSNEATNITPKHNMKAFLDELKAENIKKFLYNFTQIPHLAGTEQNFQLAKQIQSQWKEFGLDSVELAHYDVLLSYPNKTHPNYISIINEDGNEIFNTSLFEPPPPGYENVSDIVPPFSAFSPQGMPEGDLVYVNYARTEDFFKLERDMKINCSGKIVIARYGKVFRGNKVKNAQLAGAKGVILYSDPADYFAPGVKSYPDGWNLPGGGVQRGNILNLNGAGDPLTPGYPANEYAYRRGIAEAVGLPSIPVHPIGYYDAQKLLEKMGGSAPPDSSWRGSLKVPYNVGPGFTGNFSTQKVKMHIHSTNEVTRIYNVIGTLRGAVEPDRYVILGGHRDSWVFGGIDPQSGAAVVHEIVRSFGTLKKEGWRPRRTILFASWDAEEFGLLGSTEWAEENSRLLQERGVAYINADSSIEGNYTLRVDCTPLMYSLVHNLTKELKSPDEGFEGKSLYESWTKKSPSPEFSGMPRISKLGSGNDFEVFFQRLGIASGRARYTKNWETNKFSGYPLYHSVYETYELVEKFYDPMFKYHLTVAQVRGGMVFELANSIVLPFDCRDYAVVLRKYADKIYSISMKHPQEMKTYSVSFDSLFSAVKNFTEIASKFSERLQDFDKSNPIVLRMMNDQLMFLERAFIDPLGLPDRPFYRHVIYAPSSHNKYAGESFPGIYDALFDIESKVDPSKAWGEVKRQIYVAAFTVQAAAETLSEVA

Compound | log D [1] | Biodistribution Adrenals [2] [% ID/g] | Biodistribution Blood [2] [% ID/g] | Biodistribution Bone [2] [% ID/g] | Biodistribution Heart [2] [% ID/g] | Biodistribution Intestine [2] [% ID/g] | Biodistribution Kidneys [2] [% ID/g] | Biodistribution Liver [2] [% ID/g] | Biodistribution Lung [2] [% ID/g] | Biodistribution Muscle [2] [% ID/g] | Biodistribution Pancreas [2] [% ID/g] | Biodistribution Parotid gland [2] [% ID/g] | Biodistribution Spleen [2] [% ID/g] | Biodistribution Stomach [2] [% ID/g] | Biodistribution Submandibular gland [2] [% ID/g] | Biodistribution Tumor [2] [% ID/g] | IC50 [3] [nM]
CSCC[C@H](NC(=O)CC[C@H](NC(=O)N[C@@H](CCC(=O)N[C@H](CCCNC(=O)CCC(=O)NCCCC[C@@H](NC(=O)[C@@H](CNC(=O)c1ccc([Si](F)(C(C)(C)C)C(C)(C)C)cc1)NC(=O)CN1CCN(CC(=O)O)CCN(CC(=O)O)CCN(CC(=O)O)CC1)C(=O)O)C(=O)O)C(=O)O)C(=O)O)C(=O)O [Compound 5, Proinhibitor I] | −2.89±0.18 |  |  |  |  |  |  |  |  |  |  |  |  |  |  |  | 
CSCC[C@H](NC(=O)CC[C@H](NC(=O)N[C@@H](CCC(=O)N[C@H](CCCNC(=O)CCC(=O)NCCCC[C@@H](NC(=O)[C@@H](CNC(=O)c1ccc([Si](F)(C(C)(C)C)C(C)(C)C)cc1)NC(=O)CN1CCN(CC(=O)[O-])CCN(CC(=O)[O-])CCN(CC(=O)[O-])CC1)C(=O)O)C(=O)O)C(=O)O)C(=O)O)C(=O)O.[177Lu+3] [[^177Lu]Lu-5, [^177Lu]Lu-Proinhibitor I] |  | 0.00 ± 0.00 | 0.00 ± 0.00 | 0.00 ± 0.00 | 0.01 ± 0.00 | 0.55 ± 0.04 | 0.48 ± 0.02 | 0.05 ± 0.00 | 0.33 ± 0.30 | 0.00 ± 0.00 | 0.01 ± 0.00 | 0.02 ± 0.00 | 0.05 ± 0.01 | 0.14 ± 0.07 | 0.02 ± 0.01 | 0.09±0.02 | 
CCCCCC[C@H](NC(=O)CC[C@H](NC(=O)N[C@@H](CCC(=O)N[C@H](CCCNC(=O)CCC(=O)NCCCC[C@@H](NC(=O)[C@@H](CNC(=O)c1ccc([Si](F)(C(C)(C)C)C(C)(C)C)cc1)NC(=O)CN1CCN(CC(=O)[O-])CCN(CC(=O)[O-])CCN(CC(=O)[O-])CC1)C(=O)O)C(=O)O)C(=O)O)C(=O)O)C(=O)O.[177Lu+3] [[^177Lu]Lu-6, [^177Lu]Lu-Proinhibitor II] |  | 0.04 ± 0.00 | 0.00 ± 0.00 | 0.02 ± 0.01 | 0.03 ± 0.01 | 0.18 ± 0.06 | 2.36 ± 0.39 | 0.14 ± 0.02 | 0.10 ± 0.08 | 0.02 ± 0.00 | 0.03 ± 0.01 | 0.09 ± 0.03 | 0.11 ± 0.03 | 0.05 ± 0.01 | 0.07 ± 0.01 | 0.33±0.11 | 
CCCCCC[C@H](NC(=O)[C@H](CCC(=O)O)NC(=O)N[C@@H](CCC(=O)N[C@H](CCCNC(=O)CCC(=O)NCCCC[C@@H](NC(=O)[C@@H](CNC(=O)c1ccc([Si](F)(C(C)(C)C)C(C)(C)C)cc1)NC(=O)CN1CCN(CC(=O)[O-])CCN(CC(=O)[O-])CCN(CC(=O)[O-])CC1)C(=O)O)C(=O)O)C(=O)O)C(=O)O.[177Lu+3] [[^177Lu]Lu-7, [^177Lu]Lu-Proinhibitor III] |  | 0.03 ± 0.01 | 0.01 ± 0.00 | 0.04 ± 0.01 | 0.03 ± 0.01 | 0.10 ± 0.05 | 2.04 ± 0.75 | 0.17 ± 0.05 | 0.04 ± 0.01 | 0.01 ± 0.00 | 0.02 ± 0.00 | 0.06 ± 0.01 | 0.08 ± 0.02 | 0.04 ± 0.01 | 0.05 ± 0.02 | 0.14 ± 0.05 | 
CC(C)(C)[Si](F)(c1ccc(C(=O)NCC(NC(=O)CN2CCN(CC(=O)[O-])CCN(CC(=O)[O-])CCN(CC(=O)[O-])CC2)C(=O)NC(CCCCNC(=O)CCC(=O)NCCCC(NC(=O)CCC(NC(=O)NC(CCC(=O)O)C(=O)O)C(=O)O)C(=O)O)C(=O)O)cc1)C(C)(C)C.[Lu+3] (centres unmarked) [^natLu-1, ^natLu-PSMA-10, reference compound] |  |  |  |  |  |  |  |  |  |  |  |  |  |  |  |  | 7.2 ± 3.7
CCCCC[C@H](NC(=O)N[C@@H](CCC(=O)N[C@H](CCCNC(=O)CCC(=O)NCCCC[C@@H](NC(=O)[C@@H](CNC(=O)c1ccc([Si](F)(C(C)(C)C)C(C)(C)C)cc1)NC(=O)CN1CCN(CC(=O)[O-])CCN(CC(=O)[O-])CCN(CC(=O)[O-])CC1)C(=O)O)C(=O)O)C(=O)O)C(=O)O.[Lu+3] [^natLu-8, ^natLu-2-Aminoheptanoic Acid Derivative 8] |  |  |  |  |  |  |  |  |  |  |  |  |  |  |  |  | > 2000
CC(C)(C)[Si](F)(c1ccc(C(=O)NCC(NC(=O)CN2CCN(CC(=O)[O-])CCN(CC(=O)[O-])CCN(CC(=O)[O-])CC2)C(=O)NC(CCCCNC(=O)CCC(=O)NCCCC(NC(=O)CCC(NC(=O)NC(Cc2ccco2)C(=O)O)C(=O)O)C(=O)O)C(=O)O)cc1)C(C)(C)C.[Lu+3] (centres unmarked) [^natLu-9, ^natLu-Furyl Derivative 9] |  |  |  |  |  |  |  |  |  |  |  |  |  |  |  |  | > 440
CC(C)(C)[Si](F)(c1ccc(C(=O)NCC(NC(=O)CN2CCN(CC(=O)[O-])CCN(CC(=O)[O-])CCN(CC(=O)[O-])CC2)C(=O)NC(CCCCNC(=O)CCC(=O)NCCCC(NC(=O)CCC(NC(=O)NC(CCc2nnn[nH]2)C(=O)O)C(=O)O)C(=O)O)C(=O)O)cc1)C(C)(C)C.[Lu+3] (centres unmarked) [^natLu-11, ^natLu-Tetrazole Derivative 11] |  |  |  |  |  |  |  |  |  |  |  |  |  |  |  |  | 16.4 ± 3.8
